Test [1] relates to normal human dermal fibroblasts (NHDF). Description: MTT cell viability (cytotoxicity) assay on NHDF. In kind it is cell-based. Particulars: NHDF P6–P9, 50000 cells/cm^2, 24 h treatment. The procedure: Normal human dermal fibroblasts (NHDF) (PromoCell, C12300) were cultured in Quantum 333 (PAA, U15-813) supplemented with 1% (v/v) penicillin/streptomycin (PAA, P11–010). NHDF are human primary cells which were isolated from the dermis of juvenile foreskin or adult skin with different origins (PromoCell). For stock cultures, 750000 cells in 20 ml medium were seeded weekly into a T75 flask (Sarstedt) and kept at 37°C and 5% CO2 in a humidified atmosphere. The medium was changed every two to three days. For sub-culturing, cells were trypsinized by Trypsin/EDTA (PAA, L11-659). Cells were counted under the microscope.
Powder of ZnO-T was scaled and brought for each experiment fresh into dispersion with culture medium at an initial concentration of 10 mg/ml. […]
The MTT assay was used to estimate the viability of cells by measuring the production of formazan mainly through the activity of cellular mitochondrial dehydrogenase. Cell viability was determined accordingly as described in already published paper, [64]. […] Production of formazan by viable cells was estimated after 90 min (37°C, 5% CO2) by measuring the absorbance at a wavelength of 570 nm (photometer 340 ATTC, SLT Lab instruments, Germany). […]
NHDF cells (passage numbers: P10–P14) were seeded into clear flat 96-well microtiter plates (Falcon® 3072) at a cell density of 50.000 cells/cm^2. […] Cell viability was analysed 24 h later. […]

The test system is the same in test [2]. Description: MTT cell viability (cytotoxicity) assay on NHDF. In kind it is cell-based. To be noted: 24 h treatment, expressed as Zn, read-out: ZnCl2 EC50±SE as Zn (converted).

Each structure is given as a SMILES string. Like-named read-outs stand apart in the source and are kept apart here.

As for `[Cl-].[Cl-].[Zn+2]` [ZnCl2], in test [1], the “EC50±standard error” value stood at 36 ± 1.4 µg/mL. Also, the EC50 in test [1] (expressed as zinc, read-out: EC50±standard error in Zn^2+) is 130 ± 10 µM; in test [2] (P11–P15, 25000 cells/cm^2) it was 100 µM; in test [2] (P11–P15, 100000 cells/cm^2) it was 130 µM; in test [2] (P22–P26, 25000 cells/cm^2), 110 µM; in test [2] (P22–P26, 100000 cells/cm^2), 120 µM.

The record behind these values is publication PMC3890288, “Toxicity of Functional Nano-Micro Zinc Oxide Tetrapods: Impact of Cell Culture Conditions, Cellular Age and Material Properties” (PLoS ONE, 2014).
